Measured values published in patent EP0510036B1, “2-SUBSTITUTED 4,5-DIPHENYL-IMIDAZOLES” (RHONE-POULENC RORER S.A., priority 1990, dated 1991).

Columns and labels:
[1] = tested on: acyl coenzyme-A:cholesterol-O-acyl transferase (ACAT; EC 2.3.1.26); assay: ACAT inhibition in rat liver microsomes incubated with radiolabelled oleoyl-CoA; format: biochemical; conditions: liver microsomes of rats fed 0.5%w/w cholesterol and 0.25%w/w cholic acid for 7 days; for In-vitro % Inhibition at 1»g/ml: compound at 1»g/ml; for In-vitro % Inhibition at 0.5»g/ml: compound at 0.5»g/ml
Experimental: In assays performed in-vitro, microsomes, obtained from the livers of rats fed on a diet supplemented with 0.5%w/w cholesterol and 0.25%w/w cholic acid for 7 days, were incubated with radiolabelled oleoyl-CoA in the presence of compounds according to the invention at a concentration of 0.5 or 1 »g/ml.

[2] = tested on: plasma cholesterol concentrations; assay: Inhibition of increases in plasma cholesterol in cholesterol-fed rats; format: in vivo; conditions: diet supplemented by 0.03% w/w of test compound, measured after 3 days, relative to control animals

Structure (SMILES) | In-vitro % Inhibition at 1»g/ml [1] [%] | In-vivo % Inhibition [2] [%] | In-vitro % Inhibition at 0.5»g/ml [1] [%]
c1ccc(-c2nc(SCCCn3cccn3)[nH]c2-c2ccccc2)cc1 [Compound 1B, 2-[3-(pyrazol-1-yl)propylthio]-4,5-diphenylimidazole] | 83 | – | –
Cc1nccn1CCCSc1nc(-c2ccccc2)c(-c2ccccc2)[nH]1 [Compound 1A, 2-[3-(2-methylimidazol-1-yl)propylthio]-4,5-diphenylimidazole] | 90 | 64 | –
Cc1cc(C)n(CCCSc2nc(-c3ccccc3)c(-c3ccccc3)[nH]2)n1 [Compound 1P, 2-[3-(3,5-dimethylpyrazol-1-yl)propylthio]-4,5-diphenylimidazole] | – | – | 87
c1ccc(-c2nc(SCCCCn3cncn3)[nH]c2-c2ccccc2)cc1 [Compound 1E, 2-[4-(1,2,4-triazol-1-yl)butylthio]-4,5-diphenylimidazole] | 86 | 53 | –
c1ccc(-c2nc(SCCCn3ccnc3)[nH]c2-c2ccccc2)cc1 [Compound 1H, 2-[3-(imidazol-1-yl)propylthio]-4,5-diphenylimidazole] | 80 | – | –
c1ccc(-c2nc(SCCn3ccnc3)[nH]c2-c2ccccc2)cc1 [Compound 1G] | 86 | – | –
c1ccc(-c2nc(SCc3ccncc3)[nH]c2-c2ccccc2)cc1 [Compound 1U, 2-[pyrid-4-ylmethylthio]-4,5-diphenylimidazole] | 71 | – | –
c1ccc(-c2nc(SCCCn3ccnc3-c3ccccc3)[nH]c2-c2ccccc2)cc1 [Compound 1N, 2-[3-(2-phenylimidazol-1-yl)propylthio]-4,5-diphenylimidazole] | – | – | 57
Cn1ccnc1CSc1nc(-c2ccccc2)c(-c2ccccc2)[nH]1 [Compound 1J, 2-[(1-methylimidazol-2-yl)methylthio]-4,5-diphenylimidazole] | 85 | – | –
c1ccc(-c2nc(SCCCCCn3cncn3)[nH]c2-c2ccccc2)cc1 [Compound 1F, 2-[5-(1,2,4-triazol-1-yl)pentylthio]-4,5-diphenylimidazole] | 92 | 74 | –
c1ccc(-c2nc(SCCCn3ncnn3)[nH]c2-c2ccccc2)cc1 [Compound 1R, 2-[3-(tetrazol-2-yl)propylthio]-4,5-diphenylimidazole] | 80 | – | –
CC(Sc1nc(-c2ccccc2)c(-c2ccccc2)[nH]1)n1ccnc1 (racemic) [Compound 1I, (±)-2-[1-(imidazol-1-yl)ethylthio]-4,5-diphenylimidazole] | 53 | – | –
c1ccc(-c2nc(SCCCn3cncn3)[nH]c2-c2ccccc2)cc1 [Compound 1D, 2-[3-(1,2,4-triazol-1-yl)propylthio]-4,5-diphenylimidazole] | 84 | – | –
c1ccc(-c2nc(SCCn3cncn3)[nH]c2-c2ccccc2)cc1 [Compound 1C, 2-[2-(1,2,4-triazol-1-yl)ethylthio]-4,5-diphenylimidazole] | 88 | – | –
c1ccc(Cn2ccnc2CSc2nc(-c3ccccc3)c(-c3ccccc3)[nH]2)cc1 [Compound 1K, 2-[(1-benzylimidazol-2-yl)methylthio]-4,5-diphenylimidazole] | 57 | – | –
c1ccc(-c2nc(SCCCCCCn3cncn3)[nH]c2-c2ccccc2)cc1 [Compound 1L, 2-[6-(1,2,4-triazol-1-yl)hexylthio]-4,5-diphenylimidazole] | 91 | – | –
Cc1nccn1CCCCSc1nc(-c2ccccc2)c(-c2ccccc2)[nH]1 [Compound 1M, 2-[4-(2-methylimidazol-1-yl)butylthio]-4,5-diphenylimidazole] | – | 26 | 87
c1ccc(-c2nc(SCCCCn3cnnn3)[nH]c2-c2ccccc2)cc1 [Compound 1S, 2-[4-(tetrazol-1-yl)butylthio]-4,5-diphenylimidazole] | – | 41 | 84
c1ccc(-c2nc(SCCCCn3ncnn3)[nH]c2-c2ccccc2)cc1 [Compound 1T, 2-[4-(tetrazol-2-yl)butylthio]-4,5-diphenylimidazole] | – | – | 74
c1ccc(-c2nc(SCCCn3cnnn3)[nH]c2-c2ccccc2)cc1 [Compound 1Q, 2-[3-(tetrazol-1-yl)propylthio]-4,5-diphenylimidazole] | 88 | – | –
Cc1ncc([N+](=O)[O-])n1CCSc1nc(-c2ccccc2)c(-c2ccccc2)[nH]1 [Compound 1O, 2-[2-(2-methyl-5-nitroimidazol-1-yl)ethylthio]-4,5-diphenylimidazole] | – | – | 82
Cl.Cn1ccnc1CSc1nc(-c2ccccc2)c(-c2ccccc2)[nH]1 [Compound 1JA, 2-[(1-methylimidazol-2-yl)methylthio]-4,5-diphenylimidazole hydrochloride] | 82 | 23 | –
